The values below are quoted from earlier work in patent publication US8962668B2, “Treatment of length dependent neuropathy” (Arcion Therapeutics, Inc., priority 2005, dated 2015).

The test system of the data set is patients with painful diabetic neuropathy.

With `Clc1cccc(Cl)c1N=C1NCCN1` [clonidine], the “difference between clonidine transdermal patches and placebo patches” value (placebo-controlled cross-over pain trial (Zeigler et al.)) is “no statistically significant difference”. Besides, the “pain reduction relative to placebo” value (responders rechallenged, highest transdermal patch dosage, p<0.015) is “modest although statistically significant”. Moreover, where the note is “transdermal patches, twelve of forty-one patients who completed initial course (Byas-Smith et al.)”, the clonidine responders was 29%.
